According to US20240317780A1, “RADIOPHARMACEUTICAL SOMATOSTATIN RECEPTOR LIGANDS AND PRECURSORS THEREOF” (Technische Universität München, priority 2021, published 2024):
Read-outs that look alike come from different tables or passages of the source. Where a SMILES comes first, the peptide text is derived from it. Bridges are numbered along the chain shown (N, C = ends). [ ]: non-standard residue; d: D form. The star is where a group is joined. ξ: configuration not given here. Benzoyl(4-SiFtBu2) = CC(C)(C)[Si](F)(c1ccc(C(=O)*)cc1)C(C)(C)C; DO3AM = NC(=O)CN1CCN(CC(N)=O)CCN(CC(=O)*)CCN(CC(N)=O)CC1; ξW = NC(Cc1c[nH]c2ccccc12)C(=O)O; dDap = NC[C@@H](N)C(=O)O; ξF = NC(Cc1ccccc1)C(=O)O; ξD = NC(CC(=O)O)C(=O)O; ξDap = NCC(N)C(=O)O; ξC = NC(CS)C(=O)O

Columns and labels:
[1] = Octanol-water distribution coefficient (logD pH 7.4) of the labeled tracer; type: physicochemical; details: n-octanol/PBS pH 7.4, room temperature
How it was run: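 About 1 MBq tracer partitioned in 1:1 PBS pH 7.4/n-octanol, mixed 3 min at room temperature, centrifuged 15000 g for 5 min. Both layers counted by gamma counter; at least six repeats.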

SST2 = biological target: T1, SST2 (Homo sapiens, UniProt P30874); assay: Determination of IC50: competitive binding against [125I]TOC on SST2-transfected CHO cells; details: [125I]TOC reference radioligand, 60 min room temperature
T1 construct: expressed in transfected cells; host or cells: CHO (Chinese hamster ovary) cells

HSA = HSA (Homo sapiens, UniProt P02768); assay: HSA binding by RIAC method (gel filtration, apparent molecular weight); type: in vitro ADME; details: HSA binding as apparent molecular weight, 700 μM HSA in PBS mobile phase
Experimental: A gel filtration column Superdex 75 Increase 10/300 GL (GE Healthcare, Uppsala, Sweden) was beforehand calibrated following the producer's recommendations with a commercially available gel filtration calibration kit (GE Healthcare, Buckinghamshire, UK) comprising conalbumin (MW: 75 kDa), ovalbumin (44 kDa), carbonic anhydrase (29 kDa), ribonuclease A (13.7 kDa) and aprotinin (6.5 kDa) as reference proteins of known molecular weight. AMSEC experiments were conducted using a constant flow rate of 0.8 mL/min at rt. A solution of HSA in PBS at physiological concentration (700 μM) was used as the mobile phase. SST2 ligands were labelled as described with molar activities of 10-20 GBq/μmol. Probes of 1.0 MBq of the radioligand were injected directly from the labelling solution. HSA binding was expressed as an apparent molecular weight MW calculated from the retention time of the radioligand using the determined calibration curve.
For evaluation, experimentally determined retention times tR are first converted into elution volumes Ve by multiplying with the flow rate and thereafter converted into partition coefficients Kav following the equation
where V0 is the column void volume (8.027 mL) and Vc is the geometric column volume (24 mL). Using the equation given by the trend line plot of the column calibration
the apparent molecular weight MW is calculated as […]

[2] = Biodistribution of 18F-labeled SST2 ligands in AR42J tumor-bearing mice; type: in vivo; details: female, CD1 nu/nu, mouse, iv, total radioactivity, 1 h post injection, tail vein
Experimental: All animal experiments were conducted in accordance with general animal welfare regulations in Germany and the institutional guidelines for the care and use of animals. To establish tumor xenografts, AR42J cells (5×10^6 cells/100 μL) were suspended in Dulbecco modified Eagle medium/Nutrition Mixture F-12 with Glutamax-1 (1:1) and inoculated subcutaneously onto the right shoulder of 8 weeks old, female CD1 nu/nu mice (Charles River, Sulzfeld, Germany). Mice were used for experiments when tumors had grown to a diameter of 5-9 mm (7-15 days after inoculation).
Approximately 0.5-2.0 MBq (0.05-0.25 nmol) of the ^18F-labeled SST2-ligands were injected into the tail vein of AR42J tumor-bearing female CD1 nu/nu mice and sacrificed after 1 h post injection (n=3-5). Selected organs were removed, weighted and measured in a γ-counter.
The Tables 4, 5, and 6 summarize the results of the in vivo mouse experiments. For all biodistribution studies, female CD1 nu/nu mice with AR42J tumor xenografts, were used and sacrificed 1 h post injection.

HSA, sequence (P02768 25-609): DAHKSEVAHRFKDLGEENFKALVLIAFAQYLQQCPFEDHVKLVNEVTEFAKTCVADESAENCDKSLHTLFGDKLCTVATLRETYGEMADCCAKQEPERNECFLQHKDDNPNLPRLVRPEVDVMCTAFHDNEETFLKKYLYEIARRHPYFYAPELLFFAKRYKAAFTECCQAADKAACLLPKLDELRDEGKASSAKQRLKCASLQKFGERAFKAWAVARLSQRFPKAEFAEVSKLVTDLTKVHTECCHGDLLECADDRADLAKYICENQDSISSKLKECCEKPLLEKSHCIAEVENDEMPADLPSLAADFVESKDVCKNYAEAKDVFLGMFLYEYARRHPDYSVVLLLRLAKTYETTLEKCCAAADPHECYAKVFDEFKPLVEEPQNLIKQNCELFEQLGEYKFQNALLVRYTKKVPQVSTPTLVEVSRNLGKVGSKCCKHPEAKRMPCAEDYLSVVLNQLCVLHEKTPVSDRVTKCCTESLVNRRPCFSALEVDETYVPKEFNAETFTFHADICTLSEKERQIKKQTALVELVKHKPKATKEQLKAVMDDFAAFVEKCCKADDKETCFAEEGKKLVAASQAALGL
T1 sequence (P30874 whole entry, species assumed): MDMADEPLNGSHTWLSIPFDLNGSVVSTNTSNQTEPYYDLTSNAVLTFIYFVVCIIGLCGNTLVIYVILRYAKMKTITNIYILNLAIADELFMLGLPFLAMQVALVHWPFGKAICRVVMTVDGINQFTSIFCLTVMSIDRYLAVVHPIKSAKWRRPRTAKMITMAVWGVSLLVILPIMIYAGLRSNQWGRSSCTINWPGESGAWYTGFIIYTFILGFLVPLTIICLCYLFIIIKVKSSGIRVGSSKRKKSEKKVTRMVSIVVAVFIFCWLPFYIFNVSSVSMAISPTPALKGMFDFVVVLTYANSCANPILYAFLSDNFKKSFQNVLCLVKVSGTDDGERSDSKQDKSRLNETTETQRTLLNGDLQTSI

Compound	LogDpH=7.4 [1]	IC50 (SST2) [nM]	HSA (HSA) [kDa]	tissue uptake at 1 h ([2]; AR42J tumor, AR42J tumor, read-out: Tumor % ID/g ± SD) [%ID/g]	tissue uptake at 1 h ([2]; adrenal glands, read-out: Adrenal glands % ID/g ± SD) [%ID/g]	tissue uptake at 1 h ([2]; blood, read-out: Blood % ID/g ± SD) [%ID/g]	tissue uptake at 1 h ([2]; bone, read-out: Bone % ID/g ± SD) [%ID/g]	tissue uptake at 1 h ([2]; heart, read-out: Heart % ID/g ± SD) [%ID/g]	tissue uptake at 1 h ([2]; intestine, read-out: Intestine % ID/g ± SD) [%ID/g]	tissue uptake at 1 h ([2]; kidneys, read-out: Kidneys % ID/g ± SD) [%ID/g]	tissue uptake at 1 h ([2]; liver, read-out: Liver % ID/g ± SD) [%ID/g]	tissue uptake at 1 h ([2]; lung, read-out: Lung % ID/g ± SD) [%ID/g]	tissue uptake at 1 h ([2]; muscle, read-out: Muscle % ID/g ± SD) [%ID/g]	tissue uptake at 1 h ([2]; pancreas, read-out: Pancreas % ID/g ± SD) [%ID/g]	tissue uptake at 1 h ([2]; spleen, read-out: Spleen % ID/g ± SD) [%ID/g]	tissue uptake at 1 h ([2]; stomach, read-out: Stomach % ID/g ± SD) [%ID/g]
C[C@@H](O)[C@H](NC(=O)C1CSSCC(NC(=O)C(Cc2ccccc2)NC(=O)CNC(=O)CNC(=O)[C@@H](CC(=O)O)NC(=O)C(CC(=O)O)NC(=O)[C@@H](CNC(=O)CN2CCN(CC(N)=O)CCN(CC(N)=O)CCN(CC(N)=O)CC2)NC(=O)C(CN)NC(=O)c2ccc([Si](F)(C(C)(C)C)C(C)(C)C)cc2)C(=O)N[C@@H](Cc2ccc(O)cc2)C(=O)NC(Cc2c[nH]c3ccccc23)C(=O)N[C@@H](CCCCN)C(=O)N[C@@H]([C@@H](C)O)C(=O)N1)C(=O)O (stereo partly shown) [[Pb]36] ({Benzoyl(4-SiFtBu2)}-[ξDap][dDap](DO3AM)[ξD][dD]GG[ξF][ξC]Y[ξW]KT[ξC]T-OH; disulfide 8-13)	−1.82 ± 0.05	6.57 ± 0.32	20.22	22.3 ± 3.85	2 ± 0.27	1.3 ± 0.21	3.38 ± 0.7	0.71 ± 0.09	1.31 ± 0.21	43 ± 6.22	8.47 ± 1.23	2.42 ± 0.5	0.47 ± 0.08	9.09 ± 1.79	0.84 ± 0.17	4.32 ± 0.81
C[C@@H](O)[C@H](NC(=O)C1CSSCC(NC(=O)C(Cc2ccccc2)NC(=O)CNC(=O)CNC(=O)[C@@H](CCCN)NC(=O)C(CCCN)NC(=O)[C@@H](CNC(=O)CC[C@H](C(=O)O)N2CCN(CC(=O)O)CCN(CC(=O)O)CCN(CC(=O)O)CC2)NC(=O)C(CN)NC(=O)c2ccc([Si](F)(C(C)(C)C)C(C)(C)C)cc2)C(=O)N[C@@H](Cc2ccc(O)cc2)C(=O)NC(Cc2c[nH]c3ccccc23)C(=O)N[C@@H](CCCCN)C(=O)N[C@@H]([C@@H](C)O)C(=O)N1)C(=O)O (stereo partly shown) (natGa complex, metal not drawn) [[Ga]37]	−1.92 ± 0.04	4.66 ± 0.53	17.60													
C[C@@H](O)[C@H](NC(=O)C1CSSCC(NC(=O)C(Cc2ccccc2)NC(=O)CNC(=O)C(CC(=O)O)NC(=O)[C@@H](CC(=O)O)NC(=O)C(CNC(=O)CN2CCN(CC(=O)O)CCN(CC(=O)O)CCN(CC(=O)O)CC2)NC(=O)[C@@H](CN)NC(=O)c2ccc([Si](F)(C(C)(C)C)C(C)(C)C)cc2)C(=O)N[C@@H](Cc2ccc(O)cc2)C(=O)NC(Cc2c[nH]c3ccccc23)C(=O)N[C@@H](CCCCN)C(=O)N[C@@H]([C@@H](C)O)C(=O)N1)C(=O)O (stereo partly shown) (natGa complex, metal not drawn) [[Ga]39]	−2.20 ± 0.05	14.9 ± 1.22	24.96													
C[C@@H](O)[C@H](NC(=O)C1CSSCC(NC(=O)C(Cc2ccccc2)NC(=O)[C@@H](CC(N)=O)NC(=O)C(CC(N)=O)NC(=O)[C@@H](CC(=O)O)NC(=O)C(CC(=O)O)NC(=O)[C@@H](CNC(=O)CN2CCN(CC(=O)O)CCN(CC(=O)O)CCN(CC(=O)O)CC2)NC(=O)C(CN)NC(=O)c2ccc([Si](F)(C(C)(C)C)C(C)(C)C)cc2)C(=O)N[C@@H](Cc2ccc(O)cc2)C(=O)NC(Cc2c[nH]c3ccccc23)C(=O)N[C@@H](CCCCN)C(=O)N[C@@H]([C@@H](C)O)C(=O)N1)C(=O)O (stereo partly shown) (natGa complex, metal not drawn) [[Ga]42]	−2.41 ± 0.05	5.33 ± 0.78	17.97													
C[C@@H](O)[C@H](NC(=O)C1CSSCC(NC(=O)C(Cc2ccccc2)NC(=O)CNC(=O)CNC(=O)CNC(=O)C(CC(=O)O)NC(=O)[C@@H](CC(=O)O)NC(=O)C(CNC(=O)CN2CCN(CC(=O)O)CCN(CC(=O)O)CCN(CC(=O)O)CC2)NC(=O)[C@@H](CN)NC(=O)c2ccc([Si](F)(C(C)(C)C)C(C)(C)C)cc2)C(=O)N[C@@H](Cc2ccc(O)cc2)C(=O)NC(Cc2c[nH]c3ccccc23)C(=O)N[C@@H](CCCCN)C(=O)N[C@@H]([C@@H](C)O)C(=O)N1)C(=O)O (stereo partly shown) (natGa complex, metal not drawn) [[Ga]40]	−2.24 ± 0.03	3.61 ± 0.29	19.25													
